Results: ChEMBL document CHEMBL1828555, “Primary amino acid derivatives: substitution of the 4'-N'-benzylamide site in (R)-N'-benzyl 2-amino-3-methylbutanamide, (R)-N'-benzyl 2-amino-3,3-dimethylbutanamide, and (R)-N'-benzyl 2-amino-3-methoxypropionamide provides potent anticonvulsants with pain-attenuating properties” (J Med Chem, 2011)
Active and inactive are the calls of the source. The calls are words filed in the database; no cut-off is given here.

Columns and labels:
[1] = Neurotoxicity in ip dosed NMRI mouse assessed as median neurological impairing dose after 30 mins by rotarod test; assay type: toxicity, organism-based; conditions: in vivo
Mus musculus [2] = test: Analgesic activity in ip dosed NMRI mouse assessed as reduction in formalin-induced neuropathic pain after 30 mins; assay type: functional; conditions: 0.5 h
Mus musculus [3] = test: Protective index, ratio of TD50 for ip dosed NMRI mouse to ED50 for ip dosed NMRI mouse by maximal electroshock test; assay type: functional
Mus musculus [4] = test: Anticonvulsant activity in ip dosed 6 Hz psychomotor seizure model of NMRI mouse assessed as protection against seizure after 30 minutes; assay type: functional; conditions: 0.5 h
Mus musculus [5] = test: Anticonvulsant activity in ip dosed albino CF1 mouse assessed as protection against subcutaneous pentylenetetrazol-induced seizure; assay type: functional, organism-based
Mus musculus [6] = test: Anticonvulsant activity in ip dosed NMRI mouse assessed as protection against maximal electroshock seizure after 30 mins; assay type: functional; conditions: 0.5 h
Mus musculus [7] = test: Anticonvulsant activity in ip dosed albino CF1 mouse assessed as time of peak effect for protection against maximal electroshock-induced seizure; assay type: functional
Mus musculus [8] = test: Anticonvulsant activity in ip dosed albino CF1 mouse assessed as time of peak effect for protection against 6 Hz psychomotor seizure; assay type: functional
Mus musculus [9] = test: Anticonvulsant activity in ip dosed albino CF1 mouse assessed as protection against 6 Hz psychomotor seizure after 30 mins; assay type: functional; conditions: 0.5 h
Mus musculus [10] = test: Neurotoxicity in ip dosed albino CF1 mouse assessed as time of peak effect for median neurological impairing; assay type: toxicity, organism-based; conditions: in vivo
Mus musculus [11] = test: Anticonvulsant activity in ip dosed albino CF1 mouse assessed as protection against maximal electroshock-induced seizure after 30 mins; assay type: functional; conditions: 0.5 h
[12] = Neurotoxicity in ip dosed albino CF1 mouse assessed as median neurological impairing dose after 30 mins; assay type: toxicity, organism-based; conditions: in vivo
Mus musculus [13] = test: Analgesic activity in ip dosed albino CF1 mouse assessed as reduction of formalin-induced neuropathic pain after 30 mins; assay type: functional; conditions: 0.5 h
Mus musculus [14] = test: Analgesic activity in ip dosed albino CF1 mouse assessed as time of peak effect for reduction of formalin-induced neuropathic pain; assay type: functional
Mus musculus [15] = test: Protective index, ratio of TD50 for ip dosed albino CF1 mouse to ED50 for ip dosed albino CF1 mouse by maximal electroshock test; assay type: functional
[16] = Toxicity in po dosed albino Sprague-Dawley rat assessed as behavioural toxicity; assay type: organism-based; conditions: in vivo
Rattus norvegicus [17] = test: Anticonvulsant activity in po dosed albino Sprague-Dawley rat assessed as time of peak effect for protection against maximal electroshock seizure; assay type: functional
Rattus norvegicus [18] = test: Anticonvulsant activity in po dosed albino Sprague-Dawley rat assessed as protection against maximal electroshock seizure; assay type: functional
Rattus norvegicus [19] = test: Protective index, ratio of TD50 for po dosed albino Sprague-Dawley rat to ED50 for po dosed albino Sprague-Dawley rat by maximal electroshock test; assay type: functional
Rattus norvegicus [20] = test: Toxicity in po dosed albino Sprague-Dawley rat assessed as time of peak effect for behavioural toxicity; assay type: organism-based; conditions: in vivo

Compound	TD50 at 0.5 h [1]	ED50 (Mus musculus [2])	Ratio TD50/ED50 (Mus musculus [3])	ED50 (Mus musculus [4])	Activity (Mus musculus [5])	ED50 (Mus musculus [6])	Time (Mus musculus [7])	Time (Mus musculus [8])	ED50 (Mus musculus [9])	Time (Mus musculus [10])	ED50 (Mus musculus [11])	TD50 at 0.5 h [12]	ED50 (Mus musculus [13])	Time (Mus musculus [14])	Ratio TD50/ED50 (Mus musculus [15])	TD50 [16]	Time (Rattus norvegicus [17])	ED50 (Rattus norvegicus [18])	Ratio TD50/ED50 (Rattus norvegicus [19])	Time (Rattus norvegicus [20])
COC[C@@H](N)C(=O)NCc1ccc(C(F)(F)F)cc1.Cl	48 mg/kg	> 31 mg/kg	2.5	55 mg/kg	inactive	19 mg/kg	–	–	–	–	–	–	–	–	–	–	–	–	–	–
CC(C)[C@@H](N)C(=O)NCc1ccc(Cl)cc1	–	–	–	–	inactive	–	0.25 h	0.25 h	50 mg/kg	0.25 h	22 mg/kg	74 mg/kg	22 mg/kg	0.25 h	3.4	–	–	–	–	–
CC(C)(C)[C@H](N)C(=O)NCc1ccccc1	–	–	2.5	–	inactive	–	0.25 h	–	–	0.25 h	42 mg/kg	105 mg/kg	–	–	–	–	–	–	–	–
CC(C)[C@@H](N)C(=O)NCc1ccc(C(F)(F)F)cc1	–	–	–	–	inactive	–	0.5 h	0.5 h	30 mg/kg	0.25 h	14 mg/kg	57 mg/kg	–	–	4.1	> 500 mg/kg	1 h	13 mg/kg	>38	–
COC[C@@H](N)C(=O)NCc1ccc(OCc2cccc(F)c2)cc1	–	–	–	–	inactive	–	0.5 h	0.5 h	< 50 mg/kg	0.25 h	15 mg/kg	58 mg/kg	–	–	3.9	> 500 mg/kg	0.5 h	13 mg/kg	>38	–
COC[C@@H](NC(C)=O)C(=O)NCc1ccccc1 [LACOSAMIDE]	19 mg/kg	15 mg/kg	–	10 mg/kg	–	3.3 mg/kg	0.5 h	–	10 mg/kg	0.25 h	–	27 mg/kg	–	–	–	> 500 mg/kg	2 h	–	–	–
C[C@@H](N)C(=O)NCc1ccccc1	–	–	–	–	–	–	–	–	–	–	10 mg/kg	100 mg/kg	69 mg/kg	–	–	–	–	–	–	–
C[C@@H](N)C(=O)NCc1ccc(OCc2cccc(F)c2)cc1	–	> 37 mg/kg	–	> 120 mg/kg	inactive	17 mg/kg	–	–	–	–	–	–	–	–	–	–	–	–	–	–
CC(C)[C@@H](N)C(=O)NCc1ccc(COc2cccc(F)c2)cc1	–	30 mg/kg	3.9	> 110 mg/kg	inactive	12 mg/kg	0.25 h	0.5 h	30 mg/kg	0.5 h	18 mg/kg	71 mg/kg	–	–	–	> 30 mg/kg	0.5 h	< 30 mg/kg	–	0.25 h
COC[C@H](N)C(=O)NCc1ccccc1	63 mg/kg	120 mg/kg	1	> 70 mg/kg	inactive	64 mg/kg	–	–	–	–	–	–	–	–	–	–	–	–	–	–
COC[C@@H](N)C(=O)NCc1ccc(OC(F)(F)F)cc1.Cl	30 mg/kg	–	–	–	inactive	10 mg/kg	–	–	–	–	–	–	–	–	–	–	–	–	–	–
COC[C@@H](N)C(=O)NCc1ccccc1.Cl	> 120 mg/kg	> 67 mg/kg	>3.5	> 67 mg/kg	inactive	34 mg/kg	0.25 h	–	–	0.25 h	48 mg/kg	30 mg/kg	–	–	–	–	–	–	–	–
CC(C)(C)[C@@H](N)C(=O)NCc1ccccc1	–	> 22 mg/kg	4.7	> 71 mg/kg	inactive	13 mg/kg	0.25 h	0.25 h	30 mg/kg	0.25 h	14 mg/kg	66 mg/kg	–	–	4.7	> 500 mg/kg	0.25 h	11 mg/kg	>45	–
